Data: patent US4323567A, “Arylmalonamido-1-oxadethiacephalosporins” (priority 1976, dated 1982)
Converted amounts (≈) assume the structure as drawn. Where two headings read alike, the source gives them in different places.

What was measured:
Assay in all cases: Minimal inhibitory concentration, nutrient agar plate
[1] = test system: Enterobacter cloacae 233; type: cell-based
[2] = test system: Klebsiella sp. 363; type: cell-based
[3] = test system: Proteus mirabilis PR-4; type: cell-based
[4] = test system: E. coli 377; type: cell-based, Escherichia coli
[5] = test system: E. coli JC-2; type: cell-based; settings: Escherichia coli
[6] = test system: Klebsiella pneumoniae; type: cell-based
[7] = test system: P. vulgaris No. 3; type: cell-based; settings: Proteus vulgaris
[8] = test system: P. morganii No. 9; type: cell-based, Proteus morganii; settings: Morganella morganii
[9] = test system: Ps. aeruginosa 24; type: cell-based, Pseudomonas aeruginosa
[10] = test system: Escherichia coli H; type: cell-based
[11] = test system: Pseudomonas aeruginosa Denken; type: cell-based
[12] = test system: Ps. aeruginosa 25619; type: cell-based, Pseudomonas aeruginosa
[13] = test system: Serratia marsescens 13880; type: cell-based
[14] = test system: E. coli 73; type: cell-based, Escherichia coli
[15] = test system: P. vulgaris CN-329; type: cell-based; settings: Proteus vulgaris
[16] = Enterobacter cloacae, 233, as sodium salt, inoculum size 10^8, pH 7.0, read-out: Minimal inhibitory concentration
[17] = SP.363, as sodium salt, inoculum size 10^8, pH 7.0, read-out: Minimal inhibitory concentration
[18] = PR4, as sodium salt, inoculum size 10^8, pH 7.0, read-out: Minimal inhibitory concentration
[19] = Escherichia coli, 377, as sodium salt, inoculum size 10^8, pH 7.0, read-out: Minimal inhibitory concentration
[20] = JC2, as sodium salt, inoculum size 10^8, pH 7.0, read-out: Minimal inhibitory concentration
[21] = as sodium salt, inoculum size 10^8, pH 7.0, read-out: Minimal inhibitory concentration
[22] = NO.3, as sodium salt, inoculum size 10^8, pH 7.0, read-out: Minimal inhibitory concentration
[23] = NO.9, as sodium salt, inoculum size 10^8, pH 7.0, read-out: Minimal inhibitory concentration
[24] = Pseudomonas aeruginosa, 24, as sodium salt, inoculum size 10^8, pH 7.0, read-out: Minimal inhibitory concentration
[25] = Pseudomonas aeruginosa, 25619, as sodium salt, inoculum size 10^8, pH 7.0, read-out: Minimal inhibitory concentration
[26] = Serratia, 13880, as sodium salt, inoculum size 10^8, pH 7.0, read-out: Minimal inhibitory concentration
[27] = Escherichia coli, 73, as sodium salt, inoculum size 10^8, pH 7.0, read-out: Minimal inhibitory concentration
[28] = CN329, as sodium salt, inoculum size 10^8, pH 7.0, read-out: Minimal inhibitory concentration
[29] = ester, in the presence of 5% horse serum, sodium salt, inoculum size 10^8, pH 7.0, read-out: Minimal inhibitory concentration
[30] = pH 7, read-out: Minimal inhibitory concentration

Compound	MIC [1, 16]	MIC [2, 17]	MIC [3, 18]	MIC [4, 19]	MIC [5, 20]	MIC [6, 21]	MIC [7, 22]	MIC [8, 23]	MIC [9, 24]	MIC [10, 21]	MIC [11, 21]	MIC [12, 25]	MIC [13, 26]	MIC [14, 27]	MIC [15, 28]	other results
CO[C@@]1(NC(=O)C(C(=O)O)c2ccccc2)C(=O)N2C(C(=O)O)=C(CSc3nnnn3C)CO[C@@H]21 (stereo partly drawn) [III-13, 7β-(α-carboxy-α-phenylacetamido)-7α-methoxy-3-(1-methyltetrazol-5-yl)thiomethyl-1-oxadethia-3-cephem-4-carboxylic acid]	0.2 µg/mL	0.05 µg/mL	0.2 µg/mL	0.2 µg/mL	0.01 µg/mL	0.1 µg/mL	0.2 µg/mL	0.1 µg/mL	50 µg/mL	0.025 µg/mL	100 µg/mL	12.5 µg/mL	0.39 µg/mL	0.39 µg/mL	0.1 µg/mL	
CO[C@@]1(NC(=O)C(C(=O)Oc2ccc3c(c2)CCC3)c2ccccc2)C(=O)N2C(C(=O)O)=C(CSc3nnnn3C)CO[C@@H]21 (stereo partly drawn) [III-24, 7β-[α-(indan-5-yl)oxycarbonyl-α-phenylacetamido]-7α-methoxy-3-(1-methyltetrazol-5-yl)thiomethyl-1-oxadethia-3-cephem-4-carboxylic acid]																MIC ([1]; Enterobacter cloacae, 233, ester, in the presence of 5% horse serum, sodium salt, inoculum size 10^8, pH 7.0, read-out: Minimal inhibitory concentration): 0.2 µg/mL; MIC ([2]; SP.363, ester, in the presence of 5% horse serum, sodium salt, inoculum size 10^8, pH 7.0, read-out: Minimal inhibitory concentration): 0.05 µg/mL; MIC ([3]; PR4, ester, in the presence of 5% horse serum, sodium salt, inoculum size 10^8, pH 7.0, read-out: Minimal inhibitory concentration): 0.1 µg/mL; MIC ([4]; Escherichia coli, 377, ester, in the presence of 5% horse serum, sodium salt, inoculum size 10^8, pH 7.0, read-out: Minimal inhibitory concentration): 0.78 µg/mL; MIC ([5]; JC2, ester, in the presence of 5% horse serum, sodium salt, inoculum size 10^8, pH 7.0, read-out: Minimal inhibitory concentration): 0.01 µg/mL; MIC [6, 29]: 0.1 µg/mL; MIC ([7]; NO.3, ester, in the presence of 5% horse serum, sodium salt, inoculum size 10^8, pH 7.0, read-out: Minimal inhibitory concentration): 0.39 µg/mL; MIC ([8]; NO.9, ester, in the presence of 5% horse serum, sodium salt, inoculum size 10^8, pH 7.0, read-out: Minimal inhibitory concentration): 0.2 µg/mL; MIC ([9]; Pseudomonas aeruginosa, 24, ester, in the presence of 5% horse serum, sodium salt, inoculum size 10^8, pH 7.0, read-out: Minimal inhibitory concentration): 50 µg/mL; MIC [10, 29]: 0.025 µg/mL; MIC [11, 29]: 100 µg/mL; MIC ([12]; Pseudomonas aeruginosa, 25619, ester, in the presence of 5% horse serum, sodium salt, inoculum size 10^8, pH 7.0, read-out: Minimal inhibitory concentration): 12.5 µg/mL; MIC ([13]; Serratia, 13880, ester, in the presence of 5% horse serum, sodium salt, inoculum size 10^8, pH 7.0, read-out: Minimal inhibitory concentration): 0.78 µg/mL; MIC ([14]; Escherichia coli, 73, ester, in the presence of 5% horse serum, sodium salt, inoculum size 10^8, pH 7.0, read-out: Minimal inhibitory concentration): 0.39 µg/mL; MIC ([15]; CN329, ester, in the presence of 5% horse serum, sodium salt, inoculum size 10^8, pH 7.0, read-out: Minimal inhibitory concentration): 0.1 µg/mL
CO[C@@]1(NC(=O)C(C(=O)O)c2ccc(OC(C)=O)cc2)C(=O)N2C(C(=O)O)=C(CSc3nnnn3C)CO[C@@H]21 (stereo partly drawn) [III-14, 7β-(α-carboxy-α-p-acetoxyphenylacetamido)-7α-methoxy-3-(1-methyltetrazol-5-yl)thiomethyl-1-oxadethia-3-cephem-4-carboxylic acid]	0.78 µg/mL	0.78 µg/mL	0.2 µg/mL	1.56 µg/mL	0.39 µg/mL	0.39 µg/mL	0.39 µg/mL	0.39 µg/mL	100 µg/mL	0.2 µg/mL	> 100 µg/mL	25 µg/mL		1.56 µg/mL	0.2 µg/mL	
CO[C@@]1(NC(=O)C(C(=O)O)c2ccc(OC(=O)NC(N)=O)cc2)C(=O)N2C(C(=O)O)=C(CSc3nnnn3C)CO[C@@H]21 (stereo partly drawn) [III-27, 7β-(α-p-ureidocarbonyloxyphenyl-α-carboxyacetamido)-7α-methoxy-3-(1-methyltetrazol-5-yl)thiomethyl--oxadethia-3-cephem-4-carboxylic acid]																MIC ([1]; Enterobacter cloacae, 233, pH 7, read-out: Minimal inhibitory concentration): 0.78 µg/mL (≈ 1.29 µM); MIC ([2]; SP.363, pH 7, read-out: Minimal inhibitory concentration): 0.2 µg/mL (≈ 0.33 µM); MIC ([3]; PR4, pH 7, read-out: Minimal inhibitory concentration): 0.2 µg/mL (≈ 0.33 µM); MIC ([4]; Escherichia coli, 377, pH 7, read-out: Minimal inhibitory concentration): 0.78 µg/mL (≈ 1.29 µM); MIC ([5]; JC2, pH 7, read-out: Minimal inhibitory concentration): 0.2 µg/mL (≈ 0.33 µM); MIC [6, 30]: 0.39 µg/mL (≈ 0.643 µM); MIC ([7]; NO.3, pH 7, read-out: Minimal inhibitory concentration): 0.39 µg/mL (≈ 0.643 µM); MIC ([8]; NO.9, pH 7, read-out: Minimal inhibitory concentration): 0.2 µg/mL (≈ 0.33 µM); MIC ([9]; Pseudomonas aeruginosa, 24, pH 7, read-out: Minimal inhibitory concentration): 50 µg/mL (≈ 82.4 µM); MIC [10, 30]: 0.05 µg/mL (≈ 0.0824 µM); MIC [11, 30]: > 100 µg/mL; MIC ([12]; Pseudomonas aeruginosa, 25619, pH 7, read-out: Minimal inhibitory concentration): 12.5 µg/mL (≈ 20.6 µM); MIC ([13]; Serratia, 13880, pH 7, read-out: Minimal inhibitory concentration): 3.13 µg/mL (≈ 5.16 µM); MIC ([14]; Escherichia coli, 73, pH 7, read-out: Minimal inhibitory concentration): 0.78 µg/mL (≈ 1.29 µM); MIC ([15]; CN329, pH 7, read-out: Minimal inhibitory concentration): 0.2 µg/mL (≈ 0.33 µM)
CO[C@@]1(NC(=O)C(C(=O)O)c2ccc(OC(N)=O)cc2)C(=O)N2C(C(=O)O)=C(CSc3nnnn3C)CO[C@@H]21 (stereo partly drawn) [Example III-25, 7β-(α-p-carbamoyloxyphenyl-α-carboxyacetamido)-7α-methoxy-3-(1-methyltetrazol-5-yl)thiomethyl-1-oxadethia-3-cephem-4-carboxylic acid]	0.78 µg/mL	0.39 µg/mL	0.2 µg/mL	0.78 µg/mL	0.39 µg/mL	0.39 µg/mL	0.39 µg/mL	0.2 µg/mL	100 µg/mL	0.1 µg/mL	> 100 µg/mL	25 µg/mL	1.56 µg/mL	1.56 µg/mL	0.2 µg/mL	
Cn1nnnc1SCC1=C(C(=O)O)N2C(=O)[C@@H](NC(=O)C(C(=O)O)c3ccc(O)cc3)[C@H]2OC1 (stereo partly drawn) [Example III-6, 7β-(α-p-hydroxyphenyl-α-carboxyacetamido)-3-(1-methyltetrazol-5-yl)thiomethyl-1-oxadethia-3-cephem-4-carboxylic acid]	0.78 µg/mL	> 100 µg/mL	0.78 µg/mL	0.39 µg/mL	0.39 µg/mL	0.78 µg/mL	> 100 µg/mL	0.78 µg/mL	> 100 µg/mL	0.2 µg/mL	> 100 µg/mL	6.25 µg/mL	0.78 µg/mL	> 100 µg/mL	> 100 µg/mL	
CO[C@@]1(NC(=O)C(C(=O)O)c2ccsc2)C(=O)N2C(C(=O)O)=C(CSc3nnnn3C)CO[C@@H]21 (stereo partly drawn) [III-19, 7β-[α-(3-thienyl)-α-carboxyacetamido]-7α-methoxy-3-(1-methyltetrazol-5-yl)thiomethyl-1-oxadethia-3-cephem-4-carboxylic acid]	0.1 µg/mL	0.05 µg/mL	0.2 µg/mL	0.1 µg/mL	0.05 µg/mL	0.2 µg/mL	0.2 µg/mL	0.1 µg/mL	50 µg/mL	0.025 µg/mL	100 µg/mL	12.5 µg/mL	0.39 µg/mL	0.2 µg/mL	0.1 µg/mL	
CO[C@@]1(NC(=O)C(C(=O)O)c2ccc(O)cc2)C(=O)N2C(C(=O)O)=C(CSc3nnnn3C)CO[C@@H]21 (stereo partly drawn) [III-15, 7β-(α-carboxy-α-p-hydroxyphenylacetamido)-7α-methoxy-3-(1-methyltetrazol-5-yl)thiomethyl-1-oxadethia-3-cephem-4-carboxylic acid]		0.1 µg/mL	0.39 µg/mL	0.39 µg/mL	0.02 µg/mL	0.2 µg/mL	0.39 µg/mL	0.39 µg/mL	50 µg/mL	0.1 µg/mL	100 µg/mL	6.25 µg/mL	1.56 µg/mL	0.78 µg/mL	0.39 µg/mL	
CO[C@@]1(NC(=O)C(C(=O)O)c2cccs2)C(=O)N2C(C(=O)O)=C(CSc3nnnn3C)CO[C@@H]21 (stereo partly drawn) [III-23, 7β-[α-carboxy-α-(2-theinyl)acetamido]-7α-methoxy-3-(1-methyltetrazol-5-yl)thiomethyl-1-oxadethia-3-cephem-4-carboxylic acid]	0.2 µg/mL	0.1 µg/mL	0.1 µg/mL	0.39 µg/mL	0.05 µg/mL	0.05 µg/mL		0.1 µg/mL	50 µg/mL	0.025 µg/mL	100 µg/mL	12.5 µg/mL	0.39 µg/mL	0.2 µg/mL	0.1 µg/mL	
